Test results as given in US20090306031A1, “5alpha-ANDROSTANE-3,6,17-TRIONE (KNELLER'S TRIONE) AND METHODS OF USE THEREFOR” (priority 2009, published 2009).

Key:
[1] = Pilot study: sex hormone profile in men after oral daily Kneller's Trione; assay type: in vivo, human; details: for ending testosterone-to-estradiol ratio: day 14, ratio to 1; for change of testosterone-to-estradiol ratio: starting vs ending (14 days); for ESTRADIOL / BIOAVAILABLE TESTOSTERONE / DHT / TOTAL TESTOSTERONE: person
Method: The first study subject was a person who was dosed once per day orally with 25 mg per day of Kneller's Trione.
The second study subject was a person who was dosed once per day orally with 50 mg per day of Kneller's Trione.
The third study subject was a person who was dosed once per day orally with 100 mg per day of Kneller's Trione.

[2] = Pilot study: adverse events and safety observations in study subjects; assay type: in vivo, human
[3] = 25 mg daily oral, 14 days vs baseline
[4] = 50 mg daily oral, 14 days vs baseline
[5] = 100 mg daily oral, 14 days vs baseline

C[C@]12CCC(=O)C[C@@H]1C(=O)C[C@@H]1[C@@H]2CC[C@]2(C)C(=O)CC[C@@H]12 [Kneller's Trione, 5α-androstane-3,6,17-trione]
increase in plasma bioavailable testosterone [1, 3]: 20% | increase in plasma total testosterone [1, 3]: 13% | reduction in plasma estradiol [1, 3]: 51% | ending testosterone-to-estradiol ratio ([1]; 25 mg daily oral, starting ratio 133.83 to 1): 308.26 | change of testosterone-to-estradiol ratio ([1]; 25 mg daily oral): 130% | change in plasma estradiol [1, 4]: no change | increase in plasma bioavailable testosterone [1, 4]: 21% | increase in plasma total testosterone [1, 4]: 28% | ending testosterone-to-estradiol ratio ([1]; 50 mg daily oral, starting ratio 238.06 to 1): 305.56 | change of testosterone-to-estradiol ratio ([1]; 50 mg daily oral): 28% | increase in plasma bioavailable testosterone [1, 5]: 146% | increase in plasma total testosterone [1, 5]: 93% | reduction in plasma estradiol [1, 5]: 26% | ending testosterone-to-estradiol ratio ([1]; 100 mg daily oral, starting ratio 102.17 to 1): 266.18 | change of testosterone-to-estradiol ratio ([1]; 100 mg daily oral): 161% | added benefit over a dose of 100 mg per day ([1]; 250 mg per day oral): did not seem to offer any added benefit | total testosterone and bioavailable testosterone levels ([1]; 250 mg per day oral): raised total testosterone and bioavailable testosterone levels substantially and safely | added benefit over a dose of 100 mg per day ([1]; 500 mg per day oral): did not seem to offer any added benefit | total testosterone and bioavailable testosterone levels ([1]; 500 mg per day oral): raised total testosterone and bioavailable testosterone levels substantially and safely | added benefits of high dosage ([1]; 750 mg per day oral): no added benefits were seen | plasma testosterone levels in men ([1]; general statement, dose not stated): substantial and significant increases | plasma estradiol levels in men ([1]; general statement, relative to accepted normal limits): no changes outside the accepted normal limits | increase of plasma free testosterone levels ([1]; oral administration, dose not stated): more than 100% | ESTRADIOL ([1]; 25 mg per day oral single dose, DAY 7, baseline 47 pg/mL): 28 pg/mL | BIOAVAILABLE TESTOSTERONE ([1]; 25 mg per day oral single dose, DAY 7, baseline 843 pg/mL): 966 pg/mL | DHT ([1]; 25 mg per day oral single dose, DAY 7, baseline 42 ng/dL): 36 ng/dL | TOTAL TESTOSTERONE ([1]; 25 mg per day oral single dose, DAY 7, baseline (day 0) 6,290 pg/mL): 6,400 pg/mL | ESTRADIOL ([1]; 25 mg per day oral single dose, DAY 14, baseline 47 pg/mL): 23 pg/mL | BIOAVAILABLE TESTOSTERONE ([1]; 25 mg per day oral single dose, DAY 14, baseline 843 pg/mL): 1,014 pg/mL | DHT ([1]; 25 mg per day oral single dose, DAY 14, baseline 42 ng/dL): 49 ng/dL | TOTAL TESTOSTERONE ([1]; 25 mg per day oral single dose, DAY 14, baseline (day 0) 6,290 pg/mL): 7,090 pg/mL | ESTRADIOL ([1]; 50 mg per day oral single dose, DAY 7, baseline 36 pg/mL): 35 pg/mL | BIOAVAILABLE TESTOSTERONE ([1]; 50 mg per day oral single dose, DAY 7, baseline 169.7 pg/mL): 209 pg/mL | DHT ([1]; 50 mg per day oral single dose, DAY 7, baseline 47 ng/dL): 46 ng/dL | TOTAL TESTOSTERONE ([1]; 50 mg per day oral single dose, DAY 7, baseline (day 0) 8,570 pg/mL): 11,000 pg/mL | ESTRADIOL ([1]; 50 mg per day oral single dose, DAY 14, baseline 36 pg/mL): 36 pg/mL | BIOAVAILABLE TESTOSTERONE ([1]; 50 mg per day oral single dose, DAY 14, baseline 169.7 pg/mL): 209 pg/mL | DHT ([1]; 50 mg per day oral single dose, DAY 14, baseline 47 ng/dL): 49 ng/dL | TOTAL TESTOSTERONE ([1]; 50 mg per day oral single dose, DAY 14, baseline (day 0) 8,570 pg/mL): 11,000 pg/mL | ESTRADIOL ([1]; 100 mg per day oral single dose, DAY 7, baseline 46 pg/mL): 44 pg/mL | BIOAVAILABLE TESTOSTERONE ([1]; 100 mg per day oral single dose, DAY 7, baseline 794 pg/mL): 1,432 pg/mL | DHT ([1]; 100 mg per day oral single dose, DAY 7, baseline 35 ng/dL): 48 ng/dL | TOTAL TESTOSTERONE ([1]; 100 mg per day oral single dose, DAY 7, baseline (day 0) 4,700 pg/mL): 7,910 pg/mL | ESTRADIOL ([1]; 100 mg per day oral single dose, DAY 14, baseline 46 pg/mL): 34 pg/mL | BIOAVAILABLE TESTOSTERONE ([1]; 100 mg per day oral single dose, DAY 14, baseline 794 pg/mL): 1,957 pg/mL | DHT ([1]; 100 mg per day oral single dose, DAY 14, baseline 35 ng/dL): 41 ng/dL | TOTAL TESTOSTERONE ([1]; 100 mg per day oral single dose, DAY 14, baseline (day 0) 4,700 pg/mL): 9,050 pg/mL | adverse event ([2]; 750 mg per day oral, subject withdrew from the pilot study): occurrence of a priaprism | liver function, kidney function, blood lipid levels, blood pressure, heart rate, respirations, body temperature ([2]; every subject, frequent intervals, oral daily dosages 25 mg to 750 mg): within medically established normal ranges and values | other adverse events noted by any study subject ([2]; oral daily dosages 25 mg to 750 mg): No other adverse events were noted
